# Literature values, collected in patent US20090131508A1, “Use of 2-Oxo-1-Pyrrolidone Derivatives for the Preparation of a Drug” (UCB PHARMA, S.A., priority 2005, published 2009).
# System: epilepsy
# Conditions: A. J. Gower et al., Eur. J. Pharmacol., 222, (1992), 193-203; cited from earlier work
structure (smiles),measurement,value
CC[C@H](C(N)=O)N1CCCC1=O [(R)-(+)-α-ethyl-2-oxo-1-pyrrolidine-acetamide],Activity in the treatment of epilepsy,completely devoid of activity
